The IC50 is the concentration that inhibits the measured activity by half.

These results are taken from patent US20140221374A1, “RAF KINASE INHIBITORS” (Ruga Corporation, priority 2011, published 2014).

V600E-mutated B-RAF, sequence (P15056 whole entry V600E): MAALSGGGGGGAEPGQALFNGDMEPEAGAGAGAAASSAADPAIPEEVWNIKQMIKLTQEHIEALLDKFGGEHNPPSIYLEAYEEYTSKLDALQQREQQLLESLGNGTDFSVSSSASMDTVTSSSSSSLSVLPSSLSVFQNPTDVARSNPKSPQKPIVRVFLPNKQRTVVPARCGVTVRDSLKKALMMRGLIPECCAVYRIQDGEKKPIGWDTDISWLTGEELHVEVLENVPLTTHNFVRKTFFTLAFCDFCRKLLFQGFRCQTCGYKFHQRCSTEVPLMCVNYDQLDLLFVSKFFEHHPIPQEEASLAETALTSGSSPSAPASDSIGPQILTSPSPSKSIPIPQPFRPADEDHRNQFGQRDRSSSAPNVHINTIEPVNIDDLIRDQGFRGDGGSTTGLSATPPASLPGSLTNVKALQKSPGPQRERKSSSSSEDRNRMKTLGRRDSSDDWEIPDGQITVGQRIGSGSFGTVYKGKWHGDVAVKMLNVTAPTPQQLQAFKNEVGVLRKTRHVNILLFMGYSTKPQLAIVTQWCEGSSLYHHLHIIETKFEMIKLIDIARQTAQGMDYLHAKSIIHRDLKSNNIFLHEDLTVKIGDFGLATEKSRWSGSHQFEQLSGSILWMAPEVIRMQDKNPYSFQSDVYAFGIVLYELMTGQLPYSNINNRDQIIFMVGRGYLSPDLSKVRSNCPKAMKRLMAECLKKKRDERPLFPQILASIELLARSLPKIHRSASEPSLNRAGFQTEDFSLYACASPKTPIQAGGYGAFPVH

This experiment concerns the target V600E-mutated B-RAF (Homo sapiens, UniProt P15056, V600E). In words: In vitro assay for inhibition of mutant B-RAF kinase (recombinant V600E-mutated B-RAF, MEK (K97R) substrate). As to conditions: 10 nM recombinant V600E-mutated B-RAF. The format is biochemical. Here is the method: The ability of compounds described herein to inhibit RAF kinase activity were determined from biochemical kinase inhibition assays using recombinant RAF proteins as known in the art.
Solutions of varying concentrations of test compounds or vehicle were added to 10 nM recombinant V600E-mutated B-RAF proteins incubated in the presence of different concentrations of ATP and […] (K97R) as substrate, as previously described (Wilhelm, S. M., et al., Cancer Res., 64: 7099-7109, 2004; Mason, C. S., et al.; EMBO J. 18: 2137-2.148, 1999; Marais, R., et al., J. Biol. Chem., 272: 4378-4383, 1997). At least triplicate determinations for each individual test compound concentration were made and data plotted as mean±standard deviation relative to the control vehicle.
In the case of `Cc1nc(-c2ccncc2)c(-c2cccc(NC(=O)Nc3ccc(Cl)c(C(F)(F)F)c3)c2)s1` [Example 2, 1-(4-chloro-3-(trifluoromethyl)phenyl)-3-(3-(2-methyl-4-(pyridin-4-yl)thiazol-5-yl)phenyl)urea], the IC50 was at most 0.1 µM. With `Cc1nc(-c2ccncc2)c(-c2cccc(NC(=O)Nc3ccc(F)cc3)c2)s1` [Example 4, 1-(4-fluorophenyl)-3-(3-(2-methyl-4-(pyridin-4-yl)thiazol-5-yl)phenyl)urea], the IC50 is 0.1 to 1 µM. For `Cc1nc(-c2ccncc2)c(-c2cccc(NC(=O)Nc3cc(F)ccc3F)c2)s1` [Example 5, 1-(2,5-difluorophenyl)-3-(3-(2-methyl-4-(pyridin-4-yl)thiazol-5-yl)phenyl)urea], the IC50 was in the range of 0.1 to 1 µM. To `Cc1nc(-c2ccncc2)c(-c2cccc(NC(=O)Nc3c(F)cccc3F)c2)s1` [Example 6, 1-(2,6-difluorophenyl)-3-(3-(2-methyl-4-(pyridin-4-yl)thiazol-5-yl)phenyl)urea] belongs 0.1 to 1 µM; to `Cc1ccc(NC(=O)Nc2ccc(F)c(-c3sc(C)nc3-c3ccncc3)c2)cc1` [Example 8, 1-(4-fluoro-3-(2-methyl-4-(pyridin-4-yl)thiazol-5-yl)phenyl)-3-p-tolylurea], at most 0.1 µM.

Turning to `Cc1nc(-c2ccncc2)c(-c2ccc(F)c(NC(=O)Nc3ccc(Cl)c(Cl)c3)c2)s1` [Example 11, 1-(3,4-dichlorophenyl)-3-(2-fluoro-5-(2-methyl-4-(pyridin-4-yl)thiazol-5-yl)phenyl)urea], the IC50 was at most 0.1 µM.

For `Cc1nc(-c2ccncc2)c(-c2ccc(F)c(NC(=O)Nc3ccc(Cl)cc3F)c2)s1` [Example 12, 1-(4-chloro-2-fluorophenyl)-3-(2-fluoro-5-(2-methyl-4-(pyridin-4-yl)thiazol-5-yl)phenyl)urea], the IC50 was at most 0.1 µM.

Regarding `Cc1nc(-c2ccncc2)c(-c2cccc(NC(=O)Nc3ccc(Cl)cc3)c2F)s1` [Example 18, 1-(4-chlorophenyl)-3-(2-fluoro-3-(2-methyl-4-(pyridin-4-yl)thiazol-5-yl)phenyl)urea], the IC50 is 0.1 to 1 µM. For `Cc1ccc(NC(=S)Nc2cccc(-c3sc(C)nc3-c3ccncc3)c2)cc1` [Example 19, 1-(3-(2-methyl-4-(pyridin-4-yl)thiazol-5-yl)phenyl)-3-p-tolylthiourea], the IC50 is at most 0.1 µM. Regarding `Cc1nc(-c2ccnc(N)c2)c(-c2cccc(NC(=O)Nc3ccc(Cl)cc3)c2F)s1` [Example 23, 1-(3-(4-(2-aminopyridin-4-yl)-2-methylthiazol-5-yl)-2-fluorophenyl)-3-(4-chlorophenyl)urea], the IC50 was 0.1 to 1 µM. Regarding `Cc1ccc(NC(=O)Nc2cccc(-c3sc(C(C)(C)C)nc3-c3ccncc3)c2)cc1` [Example 27, 1-(3-(2-tert-butyl-4-(pyridin-4-yl)thiazol-5-yl)phenyl)-3-p-tolylurea], the IC50 was in the range of 0.1 to 1 µM. To `COCCNc1cc(-c2nc(C(C)(C)C)sc2-c2cccc(NC(=O)Nc3ccc(C)cc3)c2)ccn1` [Example 28, 1-(3-(2-tert-butyl-4-(2-(2-methoxyethylamino)pyridin-4-yl)thiazol-5-yl)phenyl)-3-p-tolylurea] belongs 1 to 10 µM. With `Cc1ccc(NC(=O)Nc2cccc(-c3sc(C(C)(C)C)nc3-c3ccnc(NCCO)c3)c2)cc1` [Example 29, 1-(3-(2-tert-butyl-4-(2-(2-hydroxyethylamino)pyridin-4-yl)thiazol-5-yl)phenyl)-3-p-tolylurea], the IC50 is at most 0.1 µM. As for `Cc1ccc(NC(=O)Nc2cccc(-c3sc(C(C)(C)C)nc3-c3ccnc(NCCN(C)C)c3)c2)cc1` [Example 30, 1-(3-(2-tert-butyl-4-(2-(2-(dimethylamino)ethylamino)pyridin-4-yl)thiazol-5-yl)phenyl)-3-p-tolylurea], the IC50 was at most 0.1 µM. As for `Cc1ccc(NC(=O)Nc2cccc(-c3sc(C(C)(C)C)nc3-c3ccnc(NCCN4CCCC4)c3)c2)cc1` [Example 31, 1-(3-(2-tert-butyl-4-(2-(2-(pyrrolidin-1-yl)ethylamino)pyridin-4-yl)thiazol-5-yl)phenyl)-3-p-tolylurea], the IC50 was at most 0.1 µM. `COC(=O)N[C@@H](C)CNc1cc(-c2nc(C(C)(C)C)sc2-c2cccc(NC(=O)Nc3ccc(C)cc3)c2)ccn1` [Example 32, (S)-methyl 1-(4-(2-tert-butyl-5-(3-(3-p-tolylureido)phenyl)thiazol-4-yl)pyridin-2-ylamino)propan-2-ylcarbamate]: the IC50 was at most 0.1 µM. On to `O=C(Nc1ccc(Cl)cc1)Nc1cc(-c2sc(NCCN3CCOCC3)nc2-c2ccncc2)ccc1F` [Example 36, 1-(4-chlorophenyl)-3-(2-fluoro-5-(2-(2-morpholinoethylamino)-4-(pyridin-4-yl)thiazol-5-yl)phenyl)urea], for which the IC50 was at most 0.1 µM.

Consider `Nc1nc(-c2ccncc2)c(-c2cccc(NC(=O)Nc3ccc(C(F)(F)F)cc3)c2F)s1` [Example 38, 1-(3-(2-amino-4-(pyridin-4-yl)thiazol-5-yl)-2-fluorophenyl)-3-(4-(trifluoromethyl)phenyl)urea], for which the IC50 fell in the range of 0.1 to 1 µM.

As to `Nc1nc(-c2ccncc2)c(-c2cccc(NC(=O)Nc3ccc(Cl)cc3)c2F)s1` [Example 39, 1-(3-(2-amino-4-(pyridin-4-yl)thiazol-5-yl)-2-fluorophenyl)-3-(4-chlorophenyl)urea], the IC50 was in the range of 1 to 10 µM. As to `Nc1nc(-c2ccncc2)c(-c2ccc(F)c(NC(=O)Nc3ccc(Cl)cc3)c2)s1` [Example 40, 1-(5-(2-amino-4-(pyridin-4-yl)thiazol-5-yl)-2-fluorophenyl)-3-(4-chlorophenyl)urea], the IC50 was at most 0.1 µM. Regarding `Cc1nc(-c2ccncc2)c(-c2cccc(NS(=O)(=O)c3c(F)cccc3F)c2)s1` [Example 42, 2,6-difluoro-N-(3-(2-methyl-4-(pyridin-4-yl)thiazol-5-yl)phenyl)benzenesulfonamide], the IC50 lay within 0.1 to 1 µM. To `Cc1nc(-c2ccnc(N)c2)c(-c2cccc(NS(=O)(=O)c3c(F)cccc3F)c2)s1` [Example 43, N-(3-(4-(2-aminopyridin-4-yl)-2-methylthiazol-5-yl)phenyl)-2,6-difluorobenzenesulfonamide] belongs 1 to 10 µM; to `CC(C)(C)c1nc(-c2ccncc2)c(-c2cccc(NS(=O)(=O)c3c(F)cccc3F)c2)s1` [Example 44, N-(3-(2-tert-butyl-4-(pyridin-4-yl)thiazol-5-yl)phenyl)-2,6-difluorobenzenesulfonamide], 0.1 to 1 µM. For the compound `Cc1ccc(CC(=O)Nc2cccc(-c3sc(C)nc3-c3ccnc(N)c3)c2)cc1` [Example 45, N-[3-(2-Methyl-4-(2-aminopyridin-4-yl)-thiazol-5-yl)-phenyl]-p-tolylacetamide], the IC50 was 0.1 to 1 µM. In the case of `Cc1ccc(CC(=O)Nc2cccc(-c3sc(C(C)(C)C)nc3-c3ccncc3)c2)cc1` [Example 46, N-(3-(2-tert-butyl-4-(pyridin-4-yl)thiazol-5-yl)phenyl)-2-p-tolylacetamide], the IC50 lay in the range of 1 to 10 µM. In the case of `CCn1cc(-c2cccc(NC(=O)Nc3ccc(S(=O)(=O)N4CCCC4)cc3)c2)c(-c2ccncc2)n1` [Example 58, 1-(3-(1-ethyl-3-(pyridin-4-yl)-1H-pyrazol-4-yl)phenyl)-3-(4-(pyrrolidin-1-ylsulfonyl)phenyl)urea], the IC50 was over 10 µM.
